The EC50 is the concentration at which the effect is half-maximal.

The first test concerns the target T1, human 5HT2c receptor (VNV Isoform) (Homo sapiens, UniProt P28335, I156V/I160V, form not given).
T1 sequence (P28335 1-458 I156V/N158S/I160V): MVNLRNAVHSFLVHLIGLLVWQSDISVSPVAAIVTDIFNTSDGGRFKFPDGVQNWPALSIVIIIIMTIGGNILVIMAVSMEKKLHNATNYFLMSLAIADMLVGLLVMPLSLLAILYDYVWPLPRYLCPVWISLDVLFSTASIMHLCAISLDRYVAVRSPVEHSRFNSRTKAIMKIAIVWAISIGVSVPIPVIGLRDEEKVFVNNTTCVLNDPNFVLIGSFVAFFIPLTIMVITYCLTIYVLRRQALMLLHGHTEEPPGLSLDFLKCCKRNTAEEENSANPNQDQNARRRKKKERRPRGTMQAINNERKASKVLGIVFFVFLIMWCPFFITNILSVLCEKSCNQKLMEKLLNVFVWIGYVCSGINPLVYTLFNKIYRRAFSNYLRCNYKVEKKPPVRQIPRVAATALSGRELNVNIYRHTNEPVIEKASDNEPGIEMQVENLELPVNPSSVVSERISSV
Kind of test: Calcium mobilization (FLIPR) 5HT2c receptor agonist assay in HEK 293 EBNA cells. It counts as cell-based. The conditions noted are these: HEK 293 EBNA cells expressing human 5HT2c receptor, ligand-induced calcium release, read-out: 5-HT2c EC50 (hVSV). The method, then: The following procedure was utilized to evaluate representative compounds of the present invention as 5HT2c receptor agonists.
5HT was utilized as a positive control. Ligand-induced calcium release and consequent fluorescence was measured on a Fluorometric Imaging Plate Reader (FLIPR, Molecular Device, CA).
All data were analyzed by nonlinear least square curve fitting using Prism 4.0 software. Agonist stimulation of calcium-induced fluorescence in FLIPR was fitted to sigmoidal dose response using equation Y=Bottom+(Top−Bottom)/(1+10 ? ((Log EC50−X))), where X is the logarithm of concentration of compounds and Y is the fluorescent response.
Regarding `N#Cc1c(Br)sc2c1C1CNCC1C2` (stereo not drawn) [Example 11, 2-Bromo-3b,4,5,6,6a,7-hexahydro-1-thia-5-aza-cyclopenta[α]pentalene-3-carbonitrile], the EC50 is less than 10 µM. Same read-out and setting: under `CCOC(=O)c1c(Br)sc2c1CC1CNCC21` (stereo not drawn) [Example 2, 5-Bromo-1,2,3,3a,7,7a-hexahydro-4-thia-2-aza-cyclopenta[α]pentalene-6-carboxylic acid ethyl ester] stands less than 0.1 µM; under `CC1c2sc(Cl)cc2C2CNCC12` (stereo not drawn) [Example 24, 2-Chloro-7-methyl-3b,4,5,6,6a,7-hexahydro-1-thia-5-aza-cyclopenta[α]pentalene], less than 1 µM. In the case of `COc1c(Cl)sc2c1CC1CNCC21` (single isomer, unassigned) [42, Enantiomer 2], the EC50 was less than 10 µM. On the same count and under the same terms, under `CCOC(=O)c1csc2c1CC1CNCC21` (stereo not drawn) [Example 3, 1,2,3,3a,7,7a-Hexahydro-4-thia-2-aza-cyclopenta[α]pentalene-6-carboxylic acid ethyl ester] stands less than 0.1 µM; under `Brc1csc2c1CC1CNCC21` (single isomer, unassigned) [37, Enantiomer 1], less than 1 µM; under `c1cc2c(s1)C1CNCC1C2` (stereo not drawn) [Example 9, 1,2,3,3a,7,7a-Hexahydro-4-thia-2-aza-cyclopenta[α]pentalene], more than 10 µM.

Regarding `N#Cc1csc2c1CC1CNCC21` (stereo not drawn) [Example 14, 1,2,3,3a,7,7a-Hexahydro-4-thia-2-aza-cyclopenta[α]pentalene-6-carbonitrile], the EC50 was less than 1 µM.

As to `Cc1sc2c(c1Br)C(C)C1CNCC21` (single isomer, unassigned) [27, Enantiomer 2], the EC50 is less than 0.1 µM. Consider `CCOC(=O)c1c(Cl)sc2c1CC1CNCC21` (stereo not drawn) [Example 4, 5-Chloro-1,2,3,3a,7,7a-hexahydro-4-thia-2-aza-cyclopenta[α]pentalene-6-carboxylic acid ethyl ester], for which the EC50 was less than 0.1 µM. The same measure, in the same setting: next, `COc1csc2c1CC1CNCC21` (stereo not drawn) [Example 20, 6-Methoxy-1,2,3,3a,7,7a-hexahydro-4-thia-2-aza-cyclopenta[α]pentalene]: less than 1 µM; `CC1c2sc(I)cc2C2CNCC12` (stereo not drawn) [Example 25, 2-Iodo-7-methyl-3b,4,5,6,6a,7-hexahydro-1-thia-5-aza-cyclopenta[α]pentalene]: less than 1 µM; `FC(F)(F)c1csc2c1C1CNCC1C2` (stereo not drawn) [Example 23, 3-Trifluoromethyl-3b,4,5,6,6a,7-hexahydro-1-thia-5-aza-cyclopenta[α]pentalene]: less than 1 µM. Still for that read-out and setting: next, `FC(F)(F)c1sc2c(c1Br)CC1CNCC21` (single isomer, unassigned) [39, Enantiomer 2]: less than 0.1 µM; `CC1c2sccc2C2CNCC12` (single isomer, unassigned) [34, Enantiomer 1]: less than 10 µM. For `c1ccc2c3c(sc2c1)C1CNCC1C3` (single isomer, unassigned) [45, Enantiomer 2], the EC50 was less than 1 µM. On the same count and under the same terms, under `COc1c(C(F)(F)F)sc2c1CC1CNCC21` (single isomer, unassigned) [41, Enantiomer 2] stands less than 0.1 µM; under `Cc1sc2c(c1Cl)CC1CNCC21` (stereo not drawn) [Example 15, 6-Chloro-5-methyl-1,2,3,3a,7,7a-hexahydro-4-thia-2-aza-cyclopenta[α]pentalene], less than 0.1 µM; under `N#Cc1c(Cl)sc2c1CC1CNCC21` (stereo not drawn) [Example 12, 5-Chloro-1,2,3,3a,7,7a-hexahydro-4-thia-2-aza-cyclopenta[α]pentalene-6-carbonitrile], less than 0.1 µM. As to `N#Cc1c(Br)sc2c1CC1CNCC21` (centres unmarked) [Example 13, 5-Bromo-1,2,3,3a,7,7a-hexahydro-4-thia-2-aza-cyclopenta[ ]pentalene-6-carbonitrile], the EC50 was less than 0.1 µM.

As for `Cc1sc2c(c1Br)C(C)C1CNCC21` (single isomer, unassigned) [27, Enantiomer 1], the EC50 was less than 1 µM.

Consider `CCOC(=O)c1c(N)sc2c1CC1CNCC21` (stereo not drawn) [Example 1, 5-Amino-1,2,3,3a,7,7a-hexahydro-4-thia-2-aza-cyclopenta[α]pentalene-6-carboxylic acid ethyl ester], for which the EC50 was less than 0.1 µM. Still for that read-out and setting: under `CC1c2cc(Br)sc2C2CNCC12` (single isomer, unassigned) [36, Enantiomer 2] stands less than 10 µM. Consider `Cc1c(C(F)(F)F)sc2c1CC1CNCC21` (single isomer, unassigned) [40, Enantiomer 2], for which the EC50 is less than 0.1 µM.

In the case of `Cc1c(Cl)sc2c1CC1CNCC21` (stereo not drawn) [Example 17, 5-Chloro-6-methyl-1,2,3,3a,7,7a-hexahydro-4-thia-2-aza-cyclopenta[α]pentalene], the EC50 was less than 0.1 µM. The same measure, in the same setting: under `Brc1cc2c(s1)CC1CCNCC21` (single isomer, unassigned) [29, Enantiomer 2] stands less than 10 µM.

`Cc1c(Cl)sc2c1C(C)C1CNCC21` (single isomer, unassigned) [26, Enantiomer 2]: the EC50 was less than 0.1 µM. The same measure, in the same setting: next, `Cc1sc2c(c1Br)C1CNCCC1C2` (single isomer, unassigned) [33, Enantiomer 2]: less than 10 µM; `Brc1cc2c(s1)CC1CNCC21` (stereo not drawn) [Example 21, 2-Bromo-3b,4,5,6,6a,7-hexahydro-1-thia-5-aza-cyclopenta[α]pentalene]: less than 0.1 µM. On the same count and under the same terms, next, `Brc1cc2c(s1)C1CNCC1C2` (single isomer, unassigned) [38, Enantiomer 1]: less than 0.1 µM; `Brc1cc2c(s1)C1CCNCC1C2` (stereo not drawn) [Example 31, 2-Bromo-4,5,6,7,7a,8-hexahydro-3bH-3-thia-6-aza-cyclopenta[α]indene]: less than 1 µM; `N#Cc1c(Cl)sc2c1C1CNCC1C2` (stereo not drawn) [Example 10, 2-Chloro-3b,4,5,6,6a,7-hexahydro-1-thia-5-aza-cyclopenta[α]pentalene-3-carbonitrile]: less than 10 µM. Consider `Brc1sc2c(c1Br)C1CNCC1C2` (stereo not drawn) [Example 22, 2,3-Dibromo-3b,4,5,6,6a,7-hexahydro-1-thia-5-aza-cyclopenta[α]pentalene], for which the EC50 was less than 0.1 µM. Still for that read-out and setting: under `Brc1cc2c(s1)CC1CNCCC21` (single isomer, unassigned) [28, Enantiomer 1] stands less than 10 µM. Still for that read-out and setting: under `Brc1sc2c(c1Br)CC1CNCC21` (stereo not drawn) [Example 19, 5,6-Dibromo-1,2,3,3a,7,7a-hexahydro-4-thia-2-aza-cyclopenta[α]pentalene] stands less than 1 µM. Take `CC1c2cc(Br)sc2C2CNCC12` (single isomer, unassigned) [36, Enantiomer 1]: the EC50 is less than 1 µM. Turning to `Nc1sc2c(c1C(=O)c1ccc(Cl)cc1)CC1CNCC21` (stereo not drawn) [Example 7, (5-Amino-1,2,3,3a,7,7a-hexahydro-4-thia-2-aza-cyclopenta[α]-pentalen-6-yl)-(4-chloro-phenyl)-methanone], the concentration giving a half-maximal response (EC50) was less than 10 µM. As for `COC(=O)c1cc2c(s1)C1CNCC1C2` (stereo not drawn) [Example 8, 1,2,3,3a,7,7a-Hexahydro-4-thia-2-aza-cyclopenta[α]pentalene-5-carboxylic acid methyl ester], the EC50 is less than 10 µM. Same read-out and setting: under `Cc1c(Br)sc2c1C1CNCC1CC2` (single isomer, unassigned) [46, Enantiomer 2] stands less than 1 µM. `Nc1sc2c(c1C(=O)c1cccc(C(F)(F)F)c1)CC1CNCC21` (stereo not drawn) [Example 5, (5-Amino-1,2,3,3a,7,7a-hexahydro-4-thia-2-aza cyclopenta[α]-pentalen-6-yl)-(3-trifluoromethyl-phenyl)-methanone]: the EC50 is less than 10 µM.

Take `CC(C)(C)C(=O)c1sc2c(c1Br)CC1CNCC21` (single isomer, unassigned) [43, Enantiomer 2]: the EC50 is less than 1 µM.

For `Cc1sc2c(c1Br)C1CNCCC1C2` (single isomer, unassigned) [33, Enantiomer 1], the EC50 was less than 1 µM.

For `Cc1ccc(C(=O)c2c(N)sc3c2CC2CNCC32)cc1` (stereo not drawn) [Example 6, (5-Amino-1,2,3,3a,7,7a-hexahydro-4-thia-2-aza-cyclopenta[α]-pentalen-6-yl)-p-tolyl-methanone], the EC50 was less than 1 µM.

The test is the same for the next values; noted with them: read-out: 5-HT2c EC50 (hVSV), HEK 293 EBNA cells expressing human 5HT2c receptor, ligand-induced calcium release.
With `Brc1cc2c(s1)C1CNCCC1C2` (single isomer, unassigned) [30, Enantiomer 2], the EC50 is more than 10 µM.

Values taken from patent US7981919B2, “Tricyclic heteroaryl piperazines, pyrrolidines and azetidines as serotonin receptor modulators” (Athersys, Inc., priority 2004, dated 2011).
